From patent US20200276181A1, “THIENOISOQUINOLINES AND THEIR DERIVATIVES FOR TARGETING TUBULIN, CH-TOG, AURORA A KINASE, TPX2, CDK5RAP2 AND/OR ASPM” (VALORBEC, SEC, priority 2017, published 2020) come the findings set out here.

The subject of one experiment is HCT116 spheroids. Kind of experiment: Multicellular tumour spheroids. Type of experiment: cell-based. As to the method:
FIGS. 5A, 5B, 5C, 5D, 5E, 5F, 5G, 5H, 5I, 5J, 5K, 5L and 5M show how C75 disrupts or reduces the growth of HeLa, HCT116 and A549 spheroids. FIG. 5A) images show HeLa spheroids over time (3 days) before and after treatment with control (1 μM C87; n=10), 250 nM (n=6) or 500 nM (n=10) of C75. The scale bar is 100 μm. FIG. 5B) is a series images of HeLa spheroids after three days of treatment with control (500 nM C87) or 500 nM C75. The spheroids were stained for fluorescein diacetate (to detect live cells) and propidium iodide (to detect dead cells). […] The scale bar is 100 μm. FIG. 5C) is a line graph showing the change in spheroid area (μm^2) for each day and treatment as indicated. Bars show standard deviation and the asterisks are p<0.05 as determined by the student's t test. FIG. 5D) images show HeLa spheroids over 3 days before and after treatment with empty nanoparticles (control; n=3) or 250 nM of nanoparticle-encapsulated C75 (n=3). The scale bar is 100 μm. […] Bars show standard deviation and the asterisks are p<0.05 as determined by the student's t test. FIG. 5F) is a series of images of HCT116 spheroids treated with control (1 μM C87; n=10), 500 nM C75 (n=10) and 1 μM C75 (n=10). FIG. 5G) is a series images of HCT116 spheroids after six days of treatment with control (1 μM C87) or 1 μM C75. The spheroids were stained for fluorescein diacetate (live cells) and propidium iodide (dead cells). […] FIG. 5H) is a line graph showing the growth in surface area (%) of HCT116 spheroids treated with control (1 μM C87), 500 nM C75 and 1 μM C75 after six days. FIG. 5I) is a series of images of A549 spheroids treated with control (1 μM C87, n=6), 500 nM C75 (n=6), and 1 μM C75 (n=6) over 5 days. The scale bar is 100 μm. FIG. 5J) is a series of images of A549 spheroids after six days of treatment with control (750 nM C87) or 1 μM C75. The spheroids were stained for fluorescein diacetate (live cells) and propidium iodide (dead cells). […] Bars show standard deviation and the asterisks are p<0.05 as determined by the student's t test. FIG. 5L) images show A549 spheroids over 6 days before and after treatment with empty nanoparticles (control; n=3) or 500 nM of nanoparticle-encapsulated C75 (n=3). The scale bar is 100 μm. […] Bars show standard deviation and the asterisks are p<0.05 as determined by the student's t test.
FIG. 11A) is a series of images of HCT116 spheroids treated with control (DMSO), 10 nM paclitaxel, 250 nM C75 or both for 6 days. […] The scale bar for the images is 100 μm. […] As shown in the images, adding paclitaxel and C75 in combination led to regression in spheroid size compared to each treatment on its own.
The thienoisoquinoline compounds may also have potential for use in combinatorial therapies. […]

Experiment [1] relates to HeLa cells with lower levels of endogenous ch-TOG (ch-TOG RNAi). Kind of experiment: Spindle phenotypes with ch-TOG RNAi. In kind it is cell-based, human. To be noted: 200 nM C75 or 20 nM colchicine. From the text:
FIG. 7B) is a bar graph showing the proportion of phenotypes of the HeLa cells observed in the different conditions listed in 7A) (bipolar spindles in light grey; bipolar spindles with misaligned chromosomes in dark grey; multipolar/fragmented spindles in hatched lines; monopolar spindles in black).

SMILES strings stand for the structures.

As for `COc1ccc(S(=O)(=O)N2Cc3ccccc3-c3sc(Br)cc32)cc1` [Compound C75], in the experiment with HCT116 spheroids (10 nM paclitaxel or 250 nM C75 alone, 6 days), the “spheroid growth, single drug” value is “failed to grow”. The “spheroid growth, combination” value with HCT116 spheroids (250 nM C75 + 10 nM paclitaxel, 6 days) is given as “regressed in size”. The effect on spheroids result in the experiment on HCT116 spheroids (HCT116 spheroids) is “regress the growth”. The “interaction with ch-TOG RNAi, fragmented spindle phenotype” value in experiment [1] was “additive effect”.
